Tests used:
[1] = tested on: CF ferret tracheas; test: Mucociliary clearance velocity (MCCV) in ex vivo CF ferret tracheas; settings: for MCCV: 10 μM forskolin, 0.3 μM carbachol, average of last 20 min of single drug period, 10 to 80 min after adding the combined agonists; for CF ferret MCCV response compared to WT ferrets: CF vs WT ferret (WT from ref 16)
Protocol: Synergistic increases of MCCV in CF ferrets and WT pigs. […] To determine if synergistic increases of MCCV could be produced in CF ferret tracheas, tracheas from 7 transgenic adult CF ferrets of mixed genotype were tested (see “Methods” section). […] SR, synergy response by the combined agonists: 19.95±4.12, (P=0.006 SR vs. Sum). Airway tissue procurement. CF ferret tissues. […] These ferrets were raised on the CFTR modulator VX770. […] Two […]/KO ferret tracheas were used for the tracheal, single gland mucus secretion rate assay. […] All isolated CF ferret tracheal trims (2-3 cm in length) were placed in DMEM culture medium immediately after euthanasia and shipped from the University of Iowa via overnight priority express. MCCV measurement. Details are in the previous reports (16,59,60). Briefly, each whole length ferret or piglet trachea, or a CF tracheal trim, was cut open along the mid-dorsal line and mounted mucosal side up onto a Sylgard elastomer platform. For pig experiments, tracheas from newborn piglets were used because tracheas from adult pigs that had been subjected to acute experiments, our source for submucosal gland experiment, had erratic MCC velocities due to epithelial damage secondary to intubation. […] Drugs were added by bath replacement with pre-warmed bath+drug(s).

[2] = tested on: CF ferret (CFTRKO/KO) tracheal glands; test: Optical measurement of glandular mucus secretion rate, CF ferret; settings: 10 mM forskolin, 0.3 mM carbachol, one ferret per order of addition
From the text: Synergistic glandular mucus secretion in WT pigs, WT ferrets, and CF ferrets. Synergistic increases in MCCV rely partly on increased mucus secretion from submucosal glands. This hypothesis arises from evidence that combinations of [Ca^2+]i-elevating and [cAMP]i-elevating agonists produce synergistically elevated rates of mucus from submucosal glands of humans (22), pigs (24), and ferrets (21). However, in those experiments different specific concentrations of agonists were used. To determine if the same protocols used here produced synergistic increases in secretion from submucosal glands, mucus secretion rates of individual tracheal glands in WT pigs and ferrets and in CF ferrets were measured via time-lapse optical imaging (28) while stimulating them with the same concentrations of agonists and durations of exposure used for MCCV studies. All secretion rates are reported as nanoliters/min/gland. […] Only two CF ferrets were able to be tested (FIG. 3G-I). […] Unstimulated secretion rates were zero, as in WT ferrets. […] The averaged secretion rate across both ferrets to the combined agonists was 1.27±0.15,which is 2.8 times the arithmetic sum of the two agonists used alone, and about half of the response of WT ferrets of 2.46±0.39 (16). Airway tissue procurement. […] Stored images were analyzed by direct measurement or with ImageJ software (V. 1.50i, https://imagej.nih.gov/ij/, NIH, MD/USA).

[3] = tested on: human nasal mucosa; test: Ciliary beat frequency (CBF) measurement; settings: 37° C.; for CBF: human nasal mucosa, KRB, 0.3 μM carbachol, 10 μM forskolin
Protocol: Ciliary beat frequency was measured in human nasal mucosa from 4 subjects. CBF (in Hz) of unstimulated tissues at 37° C. in Krebs buffer (KRB) was 10.46±0.95. […] (Note that in this experiment any effects on ASL by the agonists were diluted because the ciliated tissue was studied while submerged in Krebs solution.) […] It was tested to see if CBF might display synergistic increases to the combined agonists. CBF (in Hz) of unstimulated human nasal cells in KRB (Krebs buffer solution) was 6.79±1.69 at 25° C. and 10.46±0.95 at 37° C. (4 subjects, P=0.01) (see “Methods” section). […] Thus, while increases in CBF will contribute to increases in MCCV, they are unlikely to account for the synergistic increase in MCCV seen with the combined agonists (see “Discussion” section). Human tissues. Human nasal mucosal tissues were obtained from nasal biopsies during endoscopic sinus surgeries at Yonsei University Hospital. All methods using human tissues were carried out in accordance with relevant guidelines and regulations of Yonsei University, Seoul, South Korea. All experimental protocols were approved by Yonsei University and informed consent was obtained from all participants prior to the study (Yonsei University-IRB protocol#: 4-2016-1153). Ciliary beat frequency measurement. Ciliary beat frequency was measured using human nasal mucosa in the lab where ferret and pig tracheal mucosa was not readily accessible. Human nasal mucosa from endoscopic nasal biopsies was further dissected under a microscope and placed in a chamber controlled for temperature and pH control. Perfused Krebs bicarbonate buffer was maintained at 37° C. and pH 7.4. Cilia were visualized with a Zeiss microscope equipped with 40× or 60× objectives (Munich, Germany) using differential interference contrast (DIC) optics. […] Images were obtained for 10 s at each condition and experiments were performed in the following sequence: (1) unstimulated CBF at room temperature; (2) unstimulated at 37° C.; (3) CBF at 37° C. with 0.3 μM carbachol; (4) wash for 10 min; […] Each condition was maintained for at least 10 min. […] All recordings at each condition were made at three different areas of the epithelia, and the analyzed CBF was averaged for each experiment. To analyze captured images and calculate CBF, an in-house coding with a MATLAB software (MA, USA) was used.

C=C[C@@]1(C)CC(=O)[C@]2(O)[C@@]3(C)[C@@H](O)CCC(C)(C)[C@@H]3[C@H](O)[C@H](OC(C)=O)[C@@]2(C)O1 [forskolin]
MCCV ([1]; CF ferret tracheas): 0.18±0.09 mm/min
CF ferret MCCV response compared to WT ferrets [1]: ~0%
average gland mucus secretion rate, single ferret [2]: 0.01 nanoliters/min/gland
increase in CBF vs unstimulated [3]: 9.8%
CBF [3]: 12.06±1.22 Hz

C[N+](C)(C)CCOC(N)=O [carbachol]
MCCV ([1]; CF ferret tracheas): 3.29±2.08 mm/min
effect on MCCV ([1]; CF ferret tracheas, single agonist, 30 min): only a small increase
CF ferret MCCV response compared to WT ferrets [1]: ~40%
averaged MCCV of T10-30 to 0.3 μM carbachol in ferret (E) relative to ferrets (A) and (C) ([1]; individual CF ferrets, FIG. 7): less than 5%
average gland mucus secretion rate, single ferret [2]: 0.45±0.16 nanoliters/min/gland
increase in CBF vs unstimulated [3]: 5.3%
CBF [3]: 11.04±1.3 Hz

Reference: US20260083698A1, “Synergistic Stimulation of Mucociliary Clearance to Treat Mucus Obstruction in Cystic Fibrosis and Other Muco-Obstructive Disorders” (The Board of Trustees of the Leland Stanford Junior …, priority 2022, published 2026)
